Laboratory results taken from patent publication US12098433B2 (priority 2018, dated 2024).
Entries after “also recorded” stand apart in the source; their conditions may differ. Like-named read-outs stand apart in the source and are kept apart here.

Key:
[1] = test system: NarX / NarL two-component system
[2] = test system: NarX / NarL two-component system; details: colorimetric C32O reporter
[3] = test system: atzR (via atzABC conversion of atrazine to cyanuric acid); test: Colorimetric atrazine sensor (C23O reporter), freeze-dried reactions; assay type: biochemical, E. coli extracts; Pseudomonas ADP-1 pathway
[4] = test system: unregulated cell-free protein synthesis reaction (cell-free transcription and translation); assay type: biochemical, E. coli
[5] = test system: atzR (via atzABC conversion of atrazine to cyanuric acid); assay type: biochemical, E. coli extracts; Pseudomonas ADP-1 pathway; details: for time at which ON is distinguished from OFF (kinetic divergence): 100 μM atrazine; for sensor response to triazines (specificity): FIG. 19C
[6] = test system: AtzR transcription factor; test: Cell-free cyanuric acid sensor with colorimetric catechol 2,3-dioxygenase reporter; assay type: biochemical, Pseudomonas sp. ADP-1; details: 600 μM CYA in ON state; tubes with catechol at 30° C.
Description: FIG. 18. Proof-of-concept for field-deployable cyanuric acid sensing using a cell-free biosensor. (a) Optimized cell-free reactions are prepared without cyanuric acid (CYA), freeze-dried, and then rehydrated with unfiltered environmental water samples. (b) CYA in environmental water samples can be detected from freeze-dried cell-free reactions. […] (c) Time course comparisons of the OFF state from panel B, for the unfiltered environmental water samples that were not spiked with CYA. Pool water can be distinguished against lake water in less than one hour. […] CYA was added at a concentration of 600 μM in the ON state to a fresh cell-free reaction incubated at 30° C. and monitored for 90 minutes. […] Fluorescence in b and c is reported standardized to mean equivalent fluorescence (MEF) of fluorescein isothiocyanate based on a previously developed standard.
Finally, we aimed to validate if a visible output signal for the sensor could be generated without a plate reader to enable equipment-free detection of CYA from environmental samples. […] Because fluorescence of sfGFP is difficult to detect by the unaided eye, particularly in the early stages of the reaction, we replaced the coding sequence of the reporter plasmid instead with the enzyme catechol 2,3-dioxygenase (C23DO). […]

[7] = test system: AtzR transcription factor; test: Cell-free cyanuric acid sensor: AtzR-regulated sfGFP reporter; assay type: biochemical, Pseudomonas sp. ADP-1; details: for fold-induction of sfGFP: 100 μM

SMILES: O=[N+]([O-])O [nitrate]
- sensor activation ([1]; 1 mM nitrate, absence of supplemental NarX): activated
- detection by sensor ([1]; 1 mM nitrate, certain ratios of NarX- and NarL-enriched extracts): robust detection
- sensitivity of cell-free system ([1]; optimal conditions, sfGFP reporter): more sensitive than the environmental limit
- lowest concentration detected, visible by naked eye [2]: 10 µM

SMILES: CCNc1nc(Cl)nc(NC(C)C)n1 [atrazine]
- reactions changing color ([3]; 100 nM atrazine, three replicates, four-hour limit): one of the three reactions
- limit of detection for the enzymatic reporter ([3]; freeze-dried, all three replicates turned on within four-hour limit): 1
- poisoning / inhibitory effect on cell-free protein synthesis (sfGFP) ([4]; 100 μM): Minimal poisoning
- calculated limit of detection above background [5]: approximately 20 μM
- time at which ON is distinguished from OFF (kinetic divergence) ([5]; optimized sensor): approximately one hour
- time at which ON is distinguished from OFF (kinetic divergence) ([5]; optimized sensor, listed as Atrazine): within one hour
- sensor response to triazines (specificity) [5]: capable of detecting
- detection by sensor ([5]; doped at 100 μM, all enriched extracts plus blank extract): could detect
- overall limit of detection (figure legend) ([5]; optimized sensor, dose-response curve FIG. 22E): around 20
- EC50 ([5]; read-out: half-maximal signal): ~66 µM

SMILES: O=c1[nH]c(=O)[nH]c(=O)[nH]1 [cyanuric acid]
- time to production of yellow color (reporter activation) [6]: ≤ 1 h
- fold-induction of sfGFP ([7]; optimal 1 nM AtzR plasmid and 10 nM reporter plasmid, 4-hour incubation): > 12 fold
- fold-induction of sfGFP ([7]; reporter based on Promoter P2 (E. coli consensus −10 site), promoter screen): ~8 fold
- linear operating range of dose-response ([7]; optimal plasmid concentrations): 0 to 100 µM
- sensor response to triazines (specificity) [5]: capable of detecting

SMILES: Nc1nc(N)nc(N)n1 [melamine]
- poisoning / inhibitory effect on cell-free protein synthesis (sfGFP) ([4]; 100 μM): Minimal poisoning
- sensor response to triazines (specificity) [5]: unreactive

SMILES: CC(C)Nc1nc(Cl)nc(NC(C)C)n1 [propazine]
- poisoning / inhibitory effect on cell-free protein synthesis (sfGFP) [4]: Minimal poisoning
- sensor response to triazines (specificity) [5]: weak activation; also recorded: capable of detecting
